Here are results for two compounds from patent publication US20250129054A1 (Terran Biosciences Inc., priority 2022, published 2025).

In data set [1] the test system is rat elevated zero maze model of anxiety. Put plainly: Rat elevated zero maze model of anxiety (% time on open areas, stretched attend postures). In kind it is in vivo, Sprague-Dawley rats. The conditions noted are these: for anxiogenic effect: across the doses tested, ip. From the text:
The rat zero-maze model is a refined alternative to the plus-maze, the most widely used animal model of anxiety, and consists of an elevated annular platform, divided equally into four quadrants. Two opposite quadrants are enclosed by Perspex walls on both the inner and the outer edges of the platform, while the remaining two opposite quadrants are open being enclosed only by a Perspex “lip”. Animals will show a preference for the closed areas, and avoidance of the open sections is assumed to stem from a rodent's natural aversion to open, exposed spaces. The primary index of anxiety, which reflect changes in open arm preference, is the percentage of time spent on the open areas. A reduction in the amount of activity on the open areas is considered to reflect an increase in anxiety. Other, ethologically-based behaviours are also assessed as indices of anxiety. One of the most important is stretched attend postures (SAP) from closed to open quadrants. […] Shepherd, J K; et al., (1994) Behavioural and pharmacological validation of the elevated “zero-maze” as an animal model of anxiety. Psychopharmacol., 116:56-64.
Male Sprague-Dawley 200-250 g (Envigo UK) rats were used. Animals were group-housed (5 per cage; cage size: 40×40×20 cm) in a temperature-controlled environment (22±2° C.), under a 12 h light-dark cycle (lights on: 08:00 hours) for one week prior to testing. Food and water were freely available. Number of animals per group=5. Animals were moved into the experimental room 16-24 hours before testing.
The elevated 0-maze comprises a black Perspex annular platform (105 cm diameter, 10 cm width) elevated to 65 cm above ground level, divided equally into four quadrants. Two opposite quadrants are enclosed by clear red Perspex walls (27 cm high) on both the inner and outer edges of the platform, while the remaining two opposite quadrants are surrounded only by a Perspex “lip” (1 cm high) which serves as a tactile guide to animals on these open areas.
Subjects were weighed and tail marked before being injected. After a specified pre-treatment time, subjects were placed in a closed quadrant and a 5-min test period were recorded on videotape for subsequent analysis. The maze were cleaned with 5% methanol/water solution and dried thoroughly between test sessions. Behavioural measures comprise percentage time spent on the open areas (% TO) and frequency of stretched attend postures (SAP) from closed to open quadrants. Since the control groups were all treated identically with the same vehicle these were combined to increase power. The Chlordiazepoxide groups were also treated identically with the same dose so these were also combined to increase power. Animals are scored as being in the open area when all four paws were in an open quadrant and in the closed area only when all four paws have passed over the open-closed divide. All testing were carried out between 9.00 and 16.00 hours.
For each study, a 1-way ANOVA was conducted across vehicle, CDP, and drug treatment groups. Each group was compared to the vehicle group and a p-value for treatment determined by Fishers Least Significant Difference (LSD) test. This analysis was performed in GraphPad Prism (Version 9).
Intraperitoneal (IP): Racemic methylone HCl was formulated in Vehicle 1 (Saline) for injection to concentrations of 1, 3 and 6 mg/mL to provide doses of 5, 15 and 30 mg/kg when administered ip in 5 mL/kg dosing volumes.
Intraperitoneal (IP): S-methylone HCl was formulated in Vehicle 1 (Saline) for injection to concentrations of 0.5, 1, 1.5, 3 and 6 mg/mL to provide doses of 2.5, 5, 7.5, 15 and 30 mg/kg when administered ip in 5 mL/kg dosing volumes.
Intraperitoneal (IP): R-methylone HCl was formulated in Vehicle 1 (Saline) for injection to concentrations of 1, 3 and 6 mg/mL to provide doses of 5, 15 and 30 mg/kg when administered ip in 5 mL/kg dosing volumes. […]

Data set [2] concerns post-traumatic stress disorder (PTSD). Put plainly: Double-blind, randomized, placebo-controlled clinical trial of methylone-assisted psychotherapy in PTSD. In kind it is in vivo, human. The note with it: at Study Conclusion; for clinician-rated functional impairment score as measured by SDS / depression as measured by HAM-D: compared to placebo-treated controls; for change in CAPS-5 assessment: with psychotherapy, compared to the placebo group, PTSD participants. The procedure: A multicenter, randomized, double-blind, placebo-controlled trial is conducted to assess the efficacy and safety of methylone-assisted psychotherapy versus psychotherapy with placebo control in participants diagnosed with at least moderate post-traumatic stress disorder (PTSD).
This multicenter, randomized, double-blind, placebo-controlled trial is conducted at various sites in the United States with IRB approval from each study site. A flexible dose of methylone hydrochloride salt or placebo, followed by a supplemental half-dose unless contraindicated by patient's previous response or medical history, is also administered during the Treatment Period with psychotherapy in at least 3 blinded monthly Experimental Sessions. The Supplemental Dose extends the duration of drug effects on the participants during an Experimental Session. Methylone test groups are further subdivided into specific groups receiving only racemic methylone hydrochloride salt, S-methylone hydrochloride salt, or R-methylone hydrochloride salt. An optional Risk Evaluation and Mitigation Strategy (REMS) Protocol may be implemented for the racemic methylone, S-methylone, and placebo-groups. The Treatment Period lasts for approximately 12 weeks. During the Treatment Period, each Experimental Session is followed by three Intervening Sessions of non-drug psychotherapy. Each Experimental Session involves an overnight stay. The Primary Outcome measure, the change in Clinician Administered PTSD Scale for DSM-5 (CAPS-5), is determined by a blinded Independent Rater (IR) pool multiple times throughout the study. The study consists of separate periods for each participant. Initially, prospective participants undergo a Screening Period involving an initial eligibility assessment, a medical history intake, informed consent, and enrollment of eligible participants. Next, a Preparation Period is undertaken for enrolled participants involving medication tapering and clinical baseline assessments to confirm each participant meets enrollment criteria. As part of the Preparation Period, a detailed assessment of co-morbidities to PTSD is recorded. Participants may remain on prescribed courses of selective serotonin reuptake inhibitor (SSRI) or serotonin and norepinephrine reuptake inhibitor (SNRI) treatment. Dosages and/or frequency of administration of a prescribed SSRI or SNRI may be adjusted to fit within study parameters. Participants may be required to taper a prescribed course of medication in order to maintain eligibility within the study. The Treatment Period consists of three monthly Experimental Sessions and associated Intervening Sessions of integrative behavioral psychotherapy. The Treatment Period lasts approximately 12 weeks. Following the Treatment Period is a Follow-up Period and Study Conclusion. During the Follow-up Period and Study Conclusion, participants complete 4 weeks with no study visits, followed by a Study Conclusion visit.
This study compares the effects of three blinded Experimental Sessions of psychotherapy in combination with flexible doses of methylone or placebo administered as described below. Non-drug preparatory and intervening psychotherapy sessions are also included. Patient's weight is determined for dosage calculation. Initial dose is 100 mg unless this will result in a dosage of less than 1.5 mg/kg of patient weight. Initial dose thereby adjusted upward in 25 mg increments to deliver the lowest dose possible of at least 1.5 mg/kg of patient weight. Initial dose for Experimental Session 2 and 3 is cumulative dose calculated by adding the initial dose plus REMS protocol dose used the previous Experimental Session for each patient.
Randomization occurs prior to the initiation of Experimental Session 1. Each participant is provided the next randomized number in a sequence by a blinded study monitor. […]

Where [3] appears, read: 30 mg/kg ip, 30 min pretreatment, vs vehicle and chlordiazepoxide 6 mg/kg, male SD rats.
[4] abbreviates: specific (sufficient) doses ip, compared with chlordiazepoxide 6 mg/kg.
Where [5] appears, read: dose response over 5, 15 and 30 mg/kg ip, male SD rats.

`CN[C@@H](C)C(=O)c1ccc2c(c1)OCO2` [S-methylone]: in data set [1] (2.5 mg/kg and 5 mg/kg ip, male SD rats), the “frequency of SAPs” value is “dose dependent increase in SAPs”. Also, the “frequency of SAPs” value in data set [1] (7.5 mg/kg, 15 mg/kg and 30 mg/kg ip, male SD rats) was “dose dependent decrease in SAPS”. In data set [1] (setting [3]), the “frequency of SAPs” value was “even more effective than chlordiazepoxide at reducing SAPs” and the “time spent in the open arms” value is on record as “the time in the open arms increased”. The anxiogenic effect result in data set [1] (male SD rats) is listed as “show anxiogenic effects at lower doses”. In data set [1] (setting [4]), the “frequency of SAPs” value is listed as “decreased the frequency of SAPs as effectively as the benzodiazepine chlordiazepoxide” and the “time in the open arms” value was “increase time in the open arms”. Also, in data set [1] (trend over 5 mg/kg, 7.5 mg/kg and 15 mg/kg ip, male SD rats), the “time spent in the open arms” value is listed as “the time spent in the open arms decreased as the dose increased”. Besides, in data set [2], the “daytime sleepiness as measured by ESS” value is “significant improvement in lessening daytime sleepiness”, the “clinician-rated functional impairment score as measured by SDS” value is recorded as “significant improvement”, the “depression as measured by HAM-D” value is reported as “significant improvement” and the “change in CAPS-5 assessment” value is “significant mean reduction”.

`CN[C@H](C)C(=O)c1ccc2c(c1)OCO2` [R-methylone]: in data set [1] (setting [3]), the “frequency of SAPs” value was “significantly decreasing SAPs to the same level as chlordiazepoxide” and the “time spent in the open arms” value is listed as “as effective as chlordiazepoxide”. In data set [1] (male SD rats), the anxiogenic effect result is “did not show any anxiogenic effect at any dose”. In addition, in data set [1] (setting [5]), the “frequency of SAPs” value is “dose dependent decrease in SAPs” and the “time spent in the open arms” value is “dose dependent increase in time spent in the open arms”. In data set [1] (setting [4]), the “frequency of SAPs” value is listed as “decreased the frequency of SAPs as effectively as the benzodiazepine chlordiazepoxide” and the “time in the open arms” value is “increase time in the open arms”. Moreover, in data set [2], the “daytime sleepiness as measured by ESS” value is recorded as “significant improvement in lessening daytime sleepiness”, the “clinician-rated functional impairment score as measured by SDS” value is recorded as “significant improvement”, the “depression as measured by HAM-D” value was “significant improvement” and the “change in CAPS-5 assessment” value is “significant mean reduction”.
